Reference: patent US20200150109A1, “MICROTUBULE-TARGETING DRUGS AS IMMUNE CHECKPOINT INHIBITORS AND METHODS OF SCREENING NOVEL IMMUNE CHECKPOINT INHIBITORS FOR THE TREATMENT OF CANCERS AND INFECTIOUS DISEASES” (INSERM (Institut National de la Santé et de la Recherche …, priority 2017, published 2020)
Entries after “also recorded” stand apart in the source; their conditions may differ.

Assays:
[1] = tested on: PD-1 (CD279); assay: Cell-based test of PD-1 cell surface expression by activated T lymphocytes (flow cytometry); design: species or system human; conditions: PBMC activated with CD3/CD28 beads + IL-2, 3 days, drugs at their optimum IC50 for proliferation (CPT, mitomycin C, aphidicolin 1 μM; triptolide, Lumi-colchicine 100 nM)
Description: Shown are means and standard deviations from more than ten independent experiments, using drugs at their respective optimum IC50 for proliferation.
(§1) PBMC isolated from healthy donors were activated with CD3/CD28 antibodies-coated beads (ThermoFisher) and IL-2 (100 IU/ml) in the presence of the specified concentration of the tested drug. In the example (FIG. 1), these drugs include CI-980 (so-called NSC 613862 or mivobulin) (10 nM, or 1 nM and 0.1 nM as indicated in Figures), Combretastatin-A4 (CBT-A4), (100 nM), Colchicine (100 nM), Indibulin (100 nM), Vincristine (1 μM), Vinblastine (1 μM), Vinflunine (1 μM), Vinorelbine (1 μM), Paclitaxel (1 μM), 13-Lumi(−)-Colchicine (100 nM), Camptothecin (CPT) (1 μM), Triptolide (100 nM), Mitomycin C (1 μM), Aphidicolin (1 μM). After 3 days of in vitro cell culture in complete medium at 37° C. in a humidified atmosphere containing 5% CO2, cells were immunostained for CD3 (BioLegend, clone UCHT1), CD4 (BioLegend, clone RPA-T4), CD8 (BioLegend, clone RPA-T8), CD69 (BioLegend, clone FN50), CD279 (BD Biosciences, clone EH12.1), LAG3 (BioLegend, clone 11C3C65), TIM3 (BioLegend, clone F38-2E2) and CTLA4 (BioLegend, clone BNI3) expression and then analysed for immune checkpoint expression by flow cytometry and gating on the indicated subsets of T or NK cells.

[2] = tested on: PD-1 protein; assay: Immunoblot of PD-1 protein in CD3+ T lymphocyte cell extracts; assay type: cell-based, human; conditions: CD3+ T lymphocytes cell extracts, treated or not with CI-980; 3 independent experiments
Description: CD3+T lymphocytes cell extracts, treated or not with CI-980, were analyzed by immunoblots.

[3] = tested on: PD-1 mRNA; assay: qRT-PCR of PD-1 mRNA from activated CD3+ T lymphocytes; assay type: cell-based, human; conditions: activated CD3+ T lymphocytes treated or not with CI-980; 3 independent experiments
[4] = tested on: LAG3; assay: Immune checkpoint expression by activated T lymphocytes (flow cytometry), LAG3; assay type: cell-based, human; conditions: CD3+ T lymphocytes activated with anti-CD3/CD28 beads + IL-2; CI-980 10 nM; 3 days
Description: (§2) CD3+ T lymphocyes were activated with anti-CD3/CD28 antibodies-coated beads plus IL-2, in the presence or absence of CI-980 (10 nM), and immune checkpoint expression were assessed by flow cytometry 3 days later.
as §1

[5] = tested on: TIM3; assay: Immune checkpoint expression by activated T lymphocytes (flow cytometry), TIM3; assay type: cell-based, human; conditions: CD3+ T lymphocytes activated with anti-CD3/CD28 beads + IL-2; CI-980 10 nM; 3 days
Description: as §2, §1

[6] = tested on: CTLA4; assay: Immune checkpoint expression by activated T lymphocytes (flow cytometry), CTLA4; assay type: cell-based, human; conditions: CD3+ T lymphocytes activated with anti-CD3/CD28 beads + IL-2; CI-980 10 nM; 3 days
Description: as §2, §1

[7] = tested on: Karpas-299; assay: Cytotoxicity assay, drug-treated activated PBMC against Karpas-299; assay type: cell-based, human; conditions: PBMC activated 3 days with CI-980 10 nM, rinsed, 4 hours with Karpas-299, 2:1 effector-to-target ratio
Description: (§3) PBMC isolated from healthy donors were activated with anti-CD3/CD28 antibodies-coated beads plus IL-2, in the presence or absence of CI-980 (10 nM). After 3 days, PBMC were rinsed and co-incubated for 4 hours with the PD-L1^+ cancer cell lines Karpas-299 or SU-DHL-1. Specific lysis of the target cell lines was then measured by staining of dying cells with propidium iodide (PI) and flow cytometry analysis.
(§4) PBMC isolated from healthy donors, used as effector cells, were activated with CD3/CD28 beads and IL-2, in presence or absence of CI-980 (10 nM). Human cancer cell lines-expressing PD-L1 karpas-299 and SU-DHL-1 were used as targets cells. Prior to be mixed with the effector cells, target cells were labelled with CellTrace-Violet (ThermoFisher) in order to distinguish them from the effector cells. After 3 days, effector cells were rinsed and combined with target cells at a 2:1 effector-to-target ratio. Cells were incubated during 4 hours at 37° C. and specific lysis were analysed by flow cytometry. The percentage of lysis was determined as percent of cells positive for both propidium iodide (PI) and CellTrace-Violet versus cells positive for CellTrace-Violet.

[8] = tested on: SU-DHL-1; assay: Cytotoxicity assay, drug-treated activated PBMC against SU-DHL-1; assay type: cell-based, human; conditions: PBMC activated 3 days with CI-980 10 nM, rinsed, 4 hours with SU-DHL-1, 2:1 effector-to-target ratio
Description: as §3, §4

[9] = molecular target: T1, PD-1 protein (programmed cell death protein 1, endogenous, from activated human CD3+ T lymphocytes) (human, UniProt Q15116 25-288); assay: co-immunoprecipitation with anti-α-tubulin antibody from activated human CD3+ T lymphocyte extract, immunoblot for PD-1
T1 construct: Endogenous PD-1 in a T lymphocyte cell extract, detected by Western blot with anti-PD-1 (ThermoFisher PA5-20350); also called CD279; PDCD1
Description: FIG. 4: PD-1 protein is not associated with tubulin in T lymphocytes.
α-tubulin was immunoprecipitated from activated CD3+T lymphocytes isolated from human PBMC of healthy donors using an anti-α-tubulin antibody (Sigma-Aldrich, clone B-5-1-2). Immunoprecipitation control with an anti-PD-1 antibody (ebioscience, clone J116) was also carried out. Immunoprecipitates were subjected to SDS-PAGE, and the co-immunoprecipitated PD-1 was assessed by Western Blot using an anti-PD-1 antibody (ThermoFisher, # PA5-20350).

T1 sequence (Q15116 25-288 limits assumed): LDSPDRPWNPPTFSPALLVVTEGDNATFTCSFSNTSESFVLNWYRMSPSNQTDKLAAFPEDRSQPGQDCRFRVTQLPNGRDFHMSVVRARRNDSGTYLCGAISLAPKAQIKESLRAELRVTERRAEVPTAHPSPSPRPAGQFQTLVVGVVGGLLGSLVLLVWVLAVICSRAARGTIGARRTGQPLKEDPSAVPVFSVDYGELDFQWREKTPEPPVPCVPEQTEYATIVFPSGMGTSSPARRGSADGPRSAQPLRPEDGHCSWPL

## CC(C)[C@]12O[C@H]1[C@@H]1O[C@]13[C@]1(O[C@H]1C[C@H]1C4=C(CC[C@@]13C)C(=O)OC4)[C@@H]2O [triptolide]
[1]
  PD-1 cell surface expression: do not inhibit PD-1 expression; also recorded: do not impact PD-1 expression

## CO[C@@]12[C@H](COC(N)=O)C3=C(C(=O)C(C)=C(N)C3=O)N1C[C@@H]1N[C@@H]12 [mitomycin C]
[1]
  PD-1 cell surface expression: do not inhibit PD-1 expression; also recorded: do not impact PD-1 expression

## C[C@@]1(CO)[C@H](O)CC[C@@]2(C)[C@H]1CC[C@H]1C[C@@H]3C[C@@]12CC[C@]3(O)CO [aphidicolin]
[1]
  PD-1 cell surface expression: do not inhibit PD-1 expression; also recorded: do not impact PD-1 expression

## CCOC(=O)Nc1cc2c(c(N)n1)N=C(c1ccccc1)[C@H](C)N2 [CI-980]
[2]
  expression of PD-1 protein (immunoblot): inhibit expression of PD-1 protein
[3]
  PD-1 mRNA level (qRT-PCR): increase PD-1 mRNA level
[4]
  expression of LAG3: inhibits
[5]
  expression of TIM3: inhibits
[6]
  expression of CTLA4: inhibits
[7]
  cytolytic activity (specific lysis of target cells, PI staining): enhance cytolytic activity of immune cells
[8]
  cytolytic activity (specific lysis of target cells, PI staining): enhance cytolytic activity of immune cells

## COC1=C[C@@H]2C3=C([C@@H]2C1=O)[C@@H](NC(C)=O)CCc1cc(OC)c(OC)c(OC)c13 [beta-Lumi(−)-colchicine]
[1]
  PD-1 cell surface expression: does not affect PD-1 expression
[1]; listed as β-Lumi(−)-Colchicine
  PD-1 cell surface expression: do not impact PD-1 expression

## CC[C@@]1(O)C(=O)OCc2c1cc1n(c2=O)Cc2cc3ccccc3nc2-1 [camptothecin]
[1]
  PD-1 cell surface expression: do not inhibit PD-1 expression; also recorded: do not impact PD-1 expression

B1: tubulin (endogenous, immunoprecipitated with an anti-α-tubulin antibody from extracts of activated human CD3+ T lymphocytes) (other)
chain 1: MRECISIHVGQAGVQIGNACWELYCLEHGIQPDGQMPSDKTIGGGDDSFNTFFSETGAGKHVPRAVFVDLEPTVIDEVRTGTYRQLFHPEQLITGKEDAANNYARGHYTIGKEIIDLVLDRIRKLADQCTRLQGFLVFHSFGGGTGSGFTSLLMERLSVDYGKKSKLEFSIYPAPQVSTAVVEPYNSILTTHTTLEHSDCAFMVDNEAIYDICRRNLDIERPTYTNLNRLISQIVSSITASLRFDGALNVDLTEFQTNLVPYPRIHFPLATYAPVISAEKAYHEQLSVADITNACFEPANQMVKCDPGHGKYMACCLLYRGDVVPKDVNAAIATIKTKRTIQFVDWCPTGFKVGINYQPPTVVPGGDLAKVQRAVCMLSNTTAIAEAWARLDHKFDLMYAKRAFVHWYVGEGMEEGEFSEAREDMAALEKDYEEVGVDSVEGEGEEEGEEY
chain 2: MREIVHIQAGQCGNQIGAKFWEVISDEHGIDPTGTYHGDSDLQLDRISVYYNEATGGKYVPRAILVDLEPGTMDSVRSGPFGQIFRPDNFVFGQSGAGNNWAKGHYTEGAELVDSVLDVVRKEAESCDCLQGFQLTHSLGGGTGSGMGTLLISKIREEYPDRIMNTFSVVPSPKVSDTVVEPYNATLSVHQLVENTDETYCIDNEALYDICFRTLRLTTPTYGDLNHLVSGTMECVTTCLRFPGQLNADLRKLAVNMVPFPRLHFFMPGFAPLTSRGSQQYRALTVPDLTQQVFDAKNMMAACDPRHGRYLTVAAVFRGRMSMKEVDEQMLNVQNKNSSYFVEWIPNNVKTAVCDIPPRGLKMAVTFIGNSTAIQELFKRISEQFTAMFRRKAFLHWYTGEGMDEMEFTEAESNMNDLVSEYQQYQDATAEEEEDFGEEAEEEA
notes: Endogenous protein from a cell lysate; also called alpha-tubulin
[9]
  binding result: no binding
